According to BindingDB's records for doi:10.1021/acs.jmedchem.0c01280 (Abbvie, 2021):

Assay: Inhibition of TNFalpha in mouse L929 cells exposed to compound incubated for 1 hr with mouse TNFalpha by luminescence based assay

IC50 [nM] | SMILES
128 | CN1CCN(Cc2ccc(-c3c[nH]c4ccncc34)c(OCCc3ccc(-c4cccc5ccncc45)cc3)c2)CC1
146 | C[C@@H]1CN(c2ncc(-c3ccc4c(c3)N(Cc3ccccc3OC(F)F)C(C)(C)C4=O)cn2)CCN1C(=O)CO
119 | C[C@@H]1CN(c2ncc(-c3ccc4c(c3)N(Cc3cccnc3C#N)C(C)(C)C4=O)cn2)CCN1C(=O)CO
99 | CC1(C)C(=O)c2ccc(-c3cnc(N4CCN5C(=O)NC[C@@H]5C4)nc3)cc2N1Cc1cccnc1C#N
